Read-outs that look alike come from different tables or passages of the source.

Data set [1] can be described thus: Pharmacokinetics in control rats after gavage of JYPs. It counts as in vivo, Sprague Dawley (SD) rats. As to conditions: for half-life / Tmax / AUC(0-inf) / AUC(0-t) / Cmax / MRT last / MRT inf: male, rat, plasma; for Tmax: po; for MRT last: read-out: MRT(0-t); for MRT inf: read-out: MRT(0-∞). The source says:
According to the established method for the analysis of serum biological samples, the pharmacokinetics of various components of rat serum were investigated after the administration of different dosages of JYPs to control rats.
(§1) For the control experiment, healthy male Sprague Dawley (SD) rats of SPF grade ([…] ± 20 g) were purchased from Sipeifu (Beijing) Biotechnology Co., Ltd. (Beijing, China), Animal Quality Certificate No. 110324220102348616. For the ADHD model rats, healthy male SHR rats of SPF grade, weighing 220 ± 20 g, were purchased from SBF (Beijing) Biotechnology Co., Ltd. (Beijing, China), License No. SCXK (Yu) 2019-0010. The animals were accommodated in the Animal Center of Henan University of Traditional Chinese Medicine, which successfully underwent an ethical audit with ethics number DWLL202208003. The animals were bred under controlled conditions at a temperature of 24 °C and a relative humidity of 50 ± 2%. Before the experiment, the animals abstained from eating for 12 h and had unrestricted access to water. The feeding and experimental research conducted on the experimental animals adhered to the laws outlined in the Management of Experimental Animals in Henan Province.
(§2) JYPs were ground into a fine powder and sieved through 60-mesh sieves; then, 20 g of fine JYP powder was taken, having been weighed precisely. A precise volume of 50 mL of pure water was added and mixed well to prepare a 0.4 g/mL suspension solution of JYPs, which was then stored in the refrigerator at 4 °C.
(§3) This study involved 24 healthy male SD rats with a body mass of 220 ± 20 g and 24 healthy male ADHD rats with a body mass of 220 ± 20 g. Subjects abstained from food for a duration of 12 h before the experiment and consumed water without restriction. Both kinds of rats were randomly divided into four groups: a blank group, given an equal dose of water intragastrically, and 3 different administration groups: rats given the equivalent human dose of JYPs by gavage in doses of 1.080 g/kg/d, 2.160 g/kg/d, and 4.320 g/kg/d. Tail vein blood was collected at 0.083, 0.25, 0.5, 0.75, 1, 1.5, 2, 3, 4, 6, 8, 12, 18, and 24 h after dosing. About 0.5 mL of blood was collected in sodium heparin centrifugal tubes, then centrifuged at 4 °C for 10 min at a speed of 3500r/min. We took the upper layer and placed it at −80 °C for preservation.
(§4) We took 200 μL of plasma, added 600 μL of methanol solution and 50 μL of internal standard (100 ng/mL), and subjected it to shaking for 5 min, followed by centrifugation at 4 °C at 12,000 r/min for 10 min. The supernatant was collected and allowed to dry, then reconstituted with 50 μL of 50% methanol and centrifuged at 4 °C at 14,000 r/min for a further 10 min. The supernatant after this process was taken as the test solution. A volume of 5 μL was used for UPLC-MS analysis. The drug concentration in plasma was calculated with the aid of the internal standard.
Chromatographic conditions: Hypersil GOLD (100 × 2.1 mm, 1.9 μm) column; column temperature 35 °C; mobile phase acetonitrile (A)/0.1% formic acid aqueous solution (B); gradient elution; gradient elution program: 0–0.5 min (95% B–95% B), 0.5–8 min (95% B–50% B), 8–14 min (50% B–20% B), 14–20 min (20% B–5% B), 20–22 min (5% B–5% B), 22–25 min (95% B–95% B); flow rate 0.2 mL/min; injection volume 5 μL.

Data set [2] is described as follows: Pharmacokinetics in ADHD model rats after gavage of JYPs. The format is in vivo, SHR rats (ADHD model). As to conditions: for peak time / half-life: ADHD model rats, oral JYPs; for half-life: male, SHR, plasma; for removed within 12 h: ADHD rats (as printed, in the control-group section). On the procedure:
Based on the established analytical method for plasma samples, a pharmacokinetic study was conducted on 13 constituents in the plasma of ADHD model rats after gavage of JYPs (Figure 3). The linearity of ln(AUC0-t)–ln(dose) and ln(Cmax)–ln(dose) was analyzed in the same way.
as §1, §2, §3, §4
Chromatographic conditions: Hypersil GOLD (100 × 2.1 mm, 1.9 μm) column; column temperature 35 °C; mobile phase acetonitrile (A)/0.1% formic acid aqueous solution (B); gradient elution; gradient elution program: 0–0.5 min (95% B–95% B), 0.5–8 min (95% B–50% B), 8–14 min (50% B–20% B), 14–20 min (20% B–5% B), 20–22 min (5% B–5% B), 22–25 min (95% B–95% B); flow rate 0.2 mL/min; injection volume 5 μL. The ion source was electrospray ionization (ESI), with positive and negative ion mode spray voltages of 3.50 and 3.0 kV, an ion transfer tube temperature of 300 °C, nitrogen as the carrier gas, a sheath gas pressure of 35 arb, an auxiliary gas pressure of 8 arb, and an auxiliary heater temperature of 275 °C.

[3] abbreviates: Sprague Dawley, oral JYPs, range over compounds and doses, read-out: half-life (t1/2).
[4] abbreviates: Sprague Dawley, oral JYPs, read-out: peak time (Tmax).
Setting [5] is: Sprague-Dawley, 1.08 g/kg/day, oral JYPs low dose 1.080 g/kg/d (1st of 3 values).
Setting [6] is: Sprague-Dawley, 2.16 g/kg/day, oral JYPs medium dose 2.160 g/kg/d (2nd of 3 values).
Setting [7] is: Sprague-Dawley, 4.32 g/kg/day, oral JYPs high dose 4.320 g/kg/d (3rd of 3 values).
[8] abbreviates: oral JYPs high dose 4.320 g/kg/d (3rd of 3 values).
Where [9] appears, read: oral JYPs low dose 1.080 g/kg/d (1st of 3 values).
[10] abbreviates: oral JYPs medium dose 2.160 g/kg/d (2nd of 3 values).

Take `C=C(C)[C@@H]1CC=C2C(=CC[C@]3(C)[C@@H]([C@@H](CCC=C(C)C)C(=O)O)[C@H](O)C[C@@]23C)[C@@]1(C)CCC(=O)O` [Poricoic acid B]: the figures for the half-life in data set [1] (setting [3]) and in data set [2] (rat) were 7.61 to 12.2 h and < 10.3 h, respectively. Besides, the Tmax – broadly, the time at which the peak concentration occurs – in data set [1] (setting [4]) is < 4 h. Besides, in data set [2], the peak time result is “less than 4 h”. The “t1/2, pathological condition compared with control rats” value in data set [2] (rat, in vivo) is on record as “shorter”.

Consider `O=C1C[C@@H](c2ccc(O[C@@H]3O[C@H](CO)[C@@H](O)[C@H](O)[C@H]3O)cc2)Oc2cc(O)ccc21` [Liquiritin], for which the half-life in data set [1] (setting [3]) was in the range of 9.53 to 16.8 h. The Tmax in data set [1] (setting [4]) was < 1 h. In data set [2], the peak time entry was “less than 1 h”.

On to `C[C@@]12C[C@@]3(O)O[C@@H](O1)[C@]1(COC(=O)c4ccccc4)[C@H]3C[C@@]12O[C@@H]1O[C@H](CO)[C@@H](O)[C@H](O)[C@H]1O` [Paeoniflorin], for which the time of peak concentration (Tmax) in data set [1] (setting [4]) was < 1 h. Also, in data set [2], the peak time result is reported as “less than 1 h” and the “removed within 12 h” value is listed as “approximately 80%”.

With `CC12CC(O)C3CC1(OC1OC(CO)C(O)C(O)C1O)C3(COC(=O)c1ccccc1)C(=O)O2` (stereo not shown) [Albiflorin], in data set [2], the peak time result is listed as “less than 1 h” and the “removed within 12 h” value is reported as “approximately 80%”. Besides, the “Tmax, model rats compared with control rats” value in data set [2] (high-dose group) is “significantly shorter”. For the same compound, the “Cmax, model rats compared with control rats” value in data set [2] (middle- and high-dose administration groups) was “significantly greater”.

Turning to `C=C(CC[C@@H](C(=O)O)[C@H]1[C@H](O)C[C@@]2(C)C3=CC[C@@H](C(=C)C)[C@](C)(CCC(=O)O)C3=CC[C@]12C)C(C)C` [Poricoic acid A], the half-life was 7.61 to 12.2 h in data set [1] (setting [3]) and < 10.3 h in data set [2] (rat). For the same compound, the Tmax in data set [1] (setting [4]) was < 4 h. Moreover, the peak time result in data set [2] is reported as “less than 4 h”. For the same compound, in data set [2] (rat, in vivo), the “Cmax, ADHD rats compared with control rats” value was “significantly higher”.

`CCCC=C1OC(=O)C2=C1CCC1C3C=C4C(=O)OC(=CCCC)C4(CC3)C21` (stereo not shown) [Levistilide A]: the half-life was 14.4 to 24 h in data set [1] (setting [3]); 14.4 ± 4.36 h in data set [1] (Sprague-Dawley, 1.08 g/kg/day, oral JYPs low dose 1.080 g/kg/d (1st of 3 values), read-out: t1/2 (converted)); 16.4 ± 7.3 h in data set [1] (Sprague-Dawley, 2.16 g/kg/day, oral JYPs medium dose 2.160 g/kg/d (2nd of 3 values), read-out: t1/2 (converted)); 22.1 ± 26.9 h in data set [1] (Sprague-Dawley, 4.32 g/kg/day, oral JYPs high dose 4.320 g/kg/d (3rd of 3 values), read-out: t1/2 (converted)). Moreover, the Tmax in data set [1] (setting [4]) is < 2 h; in data set [1] (Sprague-Dawley, 1.08 g/kg/day, oral JYPs low dose 1.080 g/kg/d (1st of 3 values), read-out: Tmax), 1.17 ± 0.41 h; in data set [1] (Sprague-Dawley, 2.16 g/kg/day, oral JYPs medium dose 2.160 g/kg/d (2nd of 3 values), read-out: Tmax), 0.92 ± 0.13 h; in data set [1] (Sprague-Dawley, 4.32 g/kg/day, oral JYPs high dose 4.320 g/kg/d (3rd of 3 values), read-out: Tmax) it was 1.67 ± 0.52 h. Besides, the AUC(0-inf) (commonly the area under the concentration-time curve extrapolated to infinity) in data set [1] (setting [5]) came to 25.2 ± 7.16 ng·h/mL; in data set [1] (setting [6]), 34.2 ± 5.08 ng·h/mL; in data set [1] (setting [7]), 59.8 ± 23.1 ng·h/mL. Further, the AUC(0-t) (usually the area under the concentration-time curve up to a stated or last time point) worked out at 12.9 ± 4.96 ng·h/mL in data set [1] (setting [5]), 21.5 ± 2.97 ng·h/mL in data set [1] (setting [6]) and 36.7 ± 11.3 ng·h/mL in data set [1] (setting [7]). The Cmax (commonly the maximum level reached in the sampled fluid or tissue) is 1.79 ± 0.66 ng/mL in data set [1] (setting [5]), 2.86 ± 0.52 ng/mL in data set [1] (setting [6]) and 4.6 ± 2.01 ng/mL in data set [1] (setting [7]). Also, the MRT last in data set [1] (setting [5]) is 9.51 ± 1.01 h; in data set [1] (setting [6]), 9.23 ± 0.46 h; in data set [1] (setting [7]) it was 8.92 ± 1.16 h. For the same compound, the MRT inf in data set [1] (setting [5]) is 22.9 ± 7.04 h; in data set [1] (setting [6]) it was 24.1 ± 8.96 h; in data set [1] (setting [7]) it was 31.2 ± 38.1 h. The figures for the “AUMC(0-t)” value in data set [1] (setting [8]), in data set [1] (setting [9]) and in data set [1] (setting [10]) were 323.93± 97.01 ng/mL*(h)², 150.01± 45.26 ng/mL*(h)² and 197.79±26.58 ng/mL*(h)², respectively. The entries for the “AUMC(0-ꝏ)” value in data set [1] (setting [8]), in data set [1] (setting [9]) and in data set [1] (setting [10]) were 2493.49± 4004.18 ng/mL*(h)², 584.44± 254.39 ng/mL*(h)² and 849.62± 407.65 ng/mL*(h)², respectively. For the same compound, the Clearances in data set [1] (setting [8]) was 1455.57 ± 663.81 mL/h; in data set [1] (setting [9]), 794.02 ± 199.77 mL/h; in data set [1] (setting [10]), 1123.37 ± 161.30 mL/h. The Vss was found to be 33463.62 ± 24837.03 mL in data set [1] (setting [8]), 17878.07 ± 6212.70 mL in data set [1] (setting [9]) and 26341.48 ± 7666.95 mL in data set [1] (setting [10]).

`COc1cc(/C=C/C(=O)O)ccc1O` [Ferulic acid]: the half-life in data set [1] (setting [3]) was in the range of 9.53 to 16.8 h. Besides, the Tmax in data set [1] (setting [4]) is < 1 h.

As for `O=C1C[C@@H](c2ccc(O)cc2)Oc2cc(O)ccc21` [Liquiritigenin], the half-life in data set [1] (setting [3]) was in the range of 9.53 to 16.8 h. Moreover, in data set [1] (setting [4]), the Tmax is < 1 h. For the same compound, the peak time result in data set [2] is given as “less than 1 h”. The “AUC(0-t), ADHD rats compared with control rats” value in data set [2] (all dosages) is listed as “significantly lower”.

The values above are taken from article PMC10976160, “Comparative Pharmacokinetics Research of 13 Bioactive Components of Jieyu Pills in Control and Attention Deficit Hyperactivity Disorder Model Rats Based on UPLC-Orbitrap Fusion MS” (Molecules, 2024).
